Results reported in PubChem BioAssay AID248 (DTP/NCI, 2004).
Several values for one entry are separate records, joined by “and”; a condition that tells them apart may be missing. Equal values may be shown once. Toxic doses and inconclusive results are not listed.

Tested on: L1210 leukemia ip in BDF1 mice, survival T/C
Test: NCI In Vivo Anticancer Drug Screen. Data for tumor model L1210 Leukemia (intraperitoneal) in B6D2F1 (BDF1) mice
Conditions: endpoint: mean survival time, higher = longer survival
Procedure, shortened: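 Mice bearing the transplanted tumor received compound or vehicle. Survival of the treated group was divided by that of the vehicle-treated control group to give the ratio.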

[1] = dose: 100.0 mg/kg/injection, schedule: Q01DX009 (ip), vehicle: saline
[2] = dose: 100.0 mg/kg/injection, schedule: Q04DX003 (ip), vehicle: saline with Tween-80
[3] = dose: 100.0 mg/kg/injection, schedule: Q04DX003 (ip), vehicle: saline
[4] = dose: 200.0 mg/kg/injection, schedule: Q04DX003 (ip), vehicle: saline
[5] = dose: 100.0 mg/kg/injection, schedule: Q01DX009 (ip), vehicle: saline with Tween-80
[6] = dose: 200.0 mg/kg/injection, schedule: Q01DX009 (ip), vehicle: saline with Tween-80
[7] = dose: 200.0 mg/kg/injection, schedule: Q04DX003 (ip), vehicle: saline with Tween-80
[8] = dose: 400.0 mg/kg/injection, schedule: Q04DX003 (ip), vehicle: saline with Tween-80
[9] = dose: 50.0 mg/kg/injection, schedule: Q01DX001 (ip), vehicle: saline
[10] = dose: 100.0 mg/kg/injection, schedule: Q01DX001 (ip), vehicle: saline
[11] = dose: 200.0 mg/kg/injection, schedule: Q01DX001 (ip), vehicle: saline
[12] = dose: 400.0 mg/kg/injection, schedule: Q01DX001 (ip), vehicle: saline
[13] = dose: 100.0 mg/kg/injection, schedule: Q01DX001 (ip), vehicle: carboxymethylcellulose (CMC)
[14] = dose: 200.0 mg/kg/injection, schedule: Q01DX001 (ip), vehicle: carboxymethylcellulose (CMC)
[15] = dose: 400.0 mg/kg/injection, schedule: Q01DX001 (ip), vehicle: carboxymethylcellulose (CMC)
[16] = dose: 100.0 mg/kg/injection, schedule: Q04DX002 (ip), vehicle: Klucel (hydroxypropylcellulose) (HPC)
[17] = dose: 200.0 mg/kg/injection, schedule: Q04DX002 (ip), vehicle: Klucel (hydroxypropylcellulose) (HPC)
[18] = dose: 400.0 mg/kg/injection, schedule: Q04DX002 (ip), vehicle: Klucel (hydroxypropylcellulose) (HPC)

For `CC(=O)n1cc(F)c(=O)[nH]c1=O`, the T/C (dose: 2.1 mg/kg/injection, schedule: Q01DX009 (ip), vehicle: saline with Tween-80) was 108 % of control, the T/C (dose: 3.1 mg/kg/injection, schedule: Q01DX009 (ip), vehicle: saline with Tween-80) was 111 % of control and the T/C (dose: 6.25 mg/kg/injection, schedule: Q04DX003 (ip), vehicle: saline) was 108 % of control. For the same compound, the T/C (dose: 12.5 mg/kg/injection, schedule: Q04DX003 (ip), vehicle: saline) was 115 % of control, the T/C (dose: 25.0 mg/kg/injection, schedule: Q01DX009 (ip), vehicle: saline) was 152 % of control and the T/C (dose: 25.0 mg/kg/injection, schedule: Q04DX003 (ip), vehicle: saline) was 123 % of control. The T/C (dose: 50.0 mg/kg/injection, schedule: Q04DX003 (ip), vehicle: saline) was 151 % of control, the T/C [1] was 101 % of control and the T/C [2] was 188 % of control. For the same compound, the T/C [3] was 207 % of control, the T/C (dose: 150.0 mg/kg/injection, schedule: Q01DX001 (ip), vehicle: saline) was 152 % of control and the T/C [4] was 113 % of control. For the same compound, the T/C (dose: 300.0 mg/kg/injection, schedule: Q01DX001 (ip), vehicle: saline) was 151 % of control.
For `C1=CC2(CC1)OCCO2`, the T/C (dose: 50.0 mg/kg/injection, schedule: Q01DX009 (ip), vehicle: saline with Tween-80) was 106 % of control, the T/C (dose: 50.0 mg/kg/injection, schedule: Q04DX003 (ip), vehicle: saline with Tween-80) was 91 % of control and the T/C [5] was 104 % of control. The T/C [2] was 102 % of control, the T/C [6] was 106 % of control and the T/C [7] was 92 % of control. The T/C (dose: 400.0 mg/kg/injection, schedule: Q01DX009 (ip), vehicle: saline with Tween-80) was 104 % of control and the T/C [8] was 102 % of control.
For `Cc1ccc(CNC(=O)Cc2ccccc2)cc1C`, the T/C (dose: 100.0 mg/kg/injection, schedule: Q04DX002 (ip), vehicle: saline with Tween-80) was 100 % of control, the T/C (dose: 200.0 mg/kg/injection, schedule: Q04DX002 (ip), vehicle: saline with Tween-80) was 100 % of control and the T/C (dose: 400.0 mg/kg/injection, schedule: Q04DX002 (ip), vehicle: saline with Tween-80) was 110 % of control.
For `NC(=S)N/N=C/c1c[nH]c2ccccc12`, the T/C (dose: 100.0 mg/kg/injection, schedule: Q01DX009 (ip), vehicle: Klucel (hydroxypropylcellulose) (HPC)) was 95 % of control, the T/C (dose: 100.0 mg/kg/injection, schedule: Q04DX003 (ip), vehicle: Klucel (hydroxypropylcellulose) (HPC)) was 87 % of control and the T/C (dose: 200.0 mg/kg/injection, schedule: Q01DX009 (ip), vehicle: Klucel (hydroxypropylcellulose) (HPC)) was 97 % of control. The T/C (dose: 200.0 mg/kg/injection, schedule: Q04DX003 (ip), vehicle: Klucel (hydroxypropylcellulose) (HPC)) was 96 % of control and the T/C (dose: 400.0 mg/kg/injection, schedule: Q04DX003 (ip), vehicle: Klucel (hydroxypropylcellulose) (HPC)) was 94 % of control.
With `Oc1c(Br)cc(Br)cc1C=Nc1ccc(Br)cc1.Oc1c(Br)cc(Br)cc1C=Nc1ccc(Br)cc1.[Co]` the T/C [2] was 95 % of control, the T/C [7] was 95 % of control and the T/C [8] was 95 % of control.
With `O=C(Nc1ccccc1)C1C2C=CC(C2)C1C(=O)Nc1ccccc1` (stereo unspecified) the T/C [2] was 93 % of control and 103 % of control, the T/C [7] was 95 % of control and 87 % of control and the T/C [8] was 91 % of control.
In the case of `O=C(Oc1ccccc1Cl)c1ccccc1`, the T/C [5] is reported as 113 % of control and the T/C [6] is reported as 116 % of control.
`CCN(CC)C1CCC(NC(C)=O)CC1` (stereo unspecified) was tested, and the T/C [1] was 108 % of control, the T/C [3] was 105 % of control and 97 % of control and the T/C (dose: 200.0 mg/kg/injection, schedule: Q01DX009 (ip), vehicle: saline) was 107 % of control. For the same compound, the T/C [4] was 96 % of control and 99 % of control, the T/C (dose: 400.0 mg/kg/injection, schedule: Q01DX009 (ip), vehicle: saline) was 86 % of control and the T/C (dose: 400.0 mg/kg/injection, schedule: Q04DX003 (ip), vehicle: saline) was 101 % of control.
`CC(O)C#N` (stereo unspecified) was tested, and the T/C (dose: 0.63 mg/kg/injection, schedule: Q04DX003 (ip), vehicle: saline) was 102 % of control, the T/C (dose: 1.25 mg/kg/injection, schedule: Q04DX003 (ip), vehicle: saline) was 115 % of control and the T/C (dose: 2.5 mg/kg/injection, schedule: Q04DX003 (ip), vehicle: saline) was 115 % of control. For the same compound, the T/C (dose: 5.0 mg/kg/injection, schedule: Q04DX003 (ip), vehicle: saline) was 103 % of control.
In the case of `CC(=O)C(C(C)=O)C(C)(C)C`, the T/C [9] is reported as 95 % of control, the T/C [10] is reported as 97 % of control and the T/C [11] is reported as 90 % of control. The T/C [12] was 95 % of control.
In the case of `C/C=C1\C(=O)C2CCC1C2` (stereo unspecified), the T/C [13] is reported as 93 % of control, the T/C [14] is reported as 90 % of control and the T/C [15] is reported as 95 % of control.
`CS(=O)(=O)Oc1c(Cl)cc(Cl)c2ccccc12` was tested, and the T/C [10] was 98 % of control, the T/C [11] was 92 % of control and the T/C [12] was 101 % of control.
`C=CCNC(=O)Nc1ncc([N+](=O)[O-])s1` was tested, and the T/C (dose: 25.0 mg/kg/injection, schedule: Q01DX009 (ip), vehicle: Klucel (hydroxypropylcellulose) (HPC)) was 90 % of control, the T/C (dose: 25.0 mg/kg/injection, schedule: Q04DX002 (ip), vehicle: Klucel (hydroxypropylcellulose) (HPC)) was 101 % of control and the T/C (dose: 50.0 mg/kg/injection, schedule: Q01DX009 (ip), vehicle: Klucel (hydroxypropylcellulose) (HPC)) was 111 % of control. For the same compound, the T/C (dose: 50.0 mg/kg/injection, schedule: Q04DX002 (ip), vehicle: Klucel (hydroxypropylcellulose) (HPC)) was 93 % of control and the T/C [16] was 93 % of control.
For `COc1ccc(Cl)cc1NC(=S)Nc1ccccc1`, the T/C [16] was 90 % of control, the T/C [17] was 101 % of control and the T/C [18] was 101 % of control.
With `Cc1ccc(NC(=O)OCCOc2c(C(C)C)cccc2C(C)C)c([N+](=O)[O-])c1` the T/C [16] was 94 % of control, the T/C [17] was 96 % of control and the T/C [18] was 92 % of control.
With `O=C(Nc1ccc(C2=NCCN2)cc1)c1cccc(C(=O)Nc2ccc(C3=NCCN3)cc2)c1[N+](=O)[O-]` the T/C (dose: 1.88 mg/kg/injection, schedule: Q01DX Z (ip), vehicle: saline) was 100 % of control, the T/C (dose: 3.75 mg/kg/injection, schedule: Q01DX Z (ip), vehicle: saline) was 100 % of control and the T/C (dose: 7.5 mg/kg/injection, schedule: Q01DX Z (ip), vehicle: saline) was 100 % of control. For the same compound, the T/C (dose: 15.0 mg/kg/injection, schedule: Q01DX Z (ip), vehicle: saline) was 105 % of control, the T/C (dose: 30.0 mg/kg/injection, schedule: Q01DX Z (ip), vehicle: carboxymethylcellulose (CMC)) was 198 % of control and the T/C (dose: 30.0 mg/kg/injection, schedule: Q01DX Z (oral), vehicle: saline) was 103 % of control. The T/C (dose: 60.0 mg/kg/injection, schedule: Q01DX Z (ip), vehicle: carboxymethylcellulose (CMC)) was 117 % of control, the T/C (dose: 60.0 mg/kg/injection, schedule: Q01DX Z (oral), vehicle: saline) was 105 % of control and the T/C (dose: 120.0 mg/kg/injection, schedule: Q01DX Z (oral), vehicle: saline) was 107 % of control. The T/C (dose: 240.0 mg/kg/injection, schedule: Q01DX Z (oral), vehicle: saline) was 102 % of control.
With `Cc1cc(Cl)cc(CN(C)C)c1O.[Cu+2]` the T/C [9] was 97 % of control, the T/C [10] was 97 % of control and the T/C [11] was 113 % of control.
With `C=CCNC(=O)N(CC=C)N=O` the T/C (dose: 1.5 mg/kg/injection, schedule: Q01DX001 (ip), vehicle: carboxymethylcellulose (CMC)) was 102 % of control, the T/C (dose: 3.0 mg/kg/injection, schedule: Q01DX001 (ip), vehicle: carboxymethylcellulose (CMC)) was 95 % of control and the T/C (dose: 6.0 mg/kg/injection, schedule: Q01DX001 (ip), vehicle: carboxymethylcellulose (CMC)) was 96 % of control. The T/C (dose: 12.0 mg/kg/injection, schedule: Q01DX001 (ip), vehicle: carboxymethylcellulose (CMC)) was 90 % of control, the T/C (dose: 16.0 mg/kg/injection, schedule: Q01DX001 (ip), vehicle: carboxymethylcellulose (CMC)) was 102 % of control and the T/C (dose: 31.0 mg/kg/injection, schedule: Q01DX001 (ip), vehicle: carboxymethylcellulose (CMC)) was 104 % of control. The T/C (dose: 62.0 mg/kg/injection, schedule: Q01DX001 (ip), vehicle: carboxymethylcellulose (CMC)) was 100 % of control and the T/C (dose: 125.0 mg/kg/injection, schedule: Q01DX001 (ip), vehicle: carboxymethylcellulose (CMC)) was 96 % of control.
With `Nc1ncnc2c1ncn2C1OC(C(O)CO)C(O)C1N` (stereo unspecified) the T/C (dose: 50.0 mg/kg/injection, schedule: Q01DX001 (ip), vehicle: carboxymethylcellulose (CMC)) was 111 % of control, the T/C [13] was 105 % of control and the T/C [14] was 108 % of control. The T/C [15] was 108 % of control.
With `C=CCNC(=O)Oc1cccc(NC(=O)OCC=C)c1` the T/C [2] was 96 % of control, the T/C [7] was 96 % of control and the T/C [8] was 102 % of control.
